What all share (type): functional
The test system of experiment [1] is Blumeria graminis f. sp. tritici. The experiment is described as follows: Antifungal activity against Blumeria graminis f. sp. tritici on wheat plant assessed as disease control at 100 ppm after 24 hr.
Experiment [2] deals with Rhizoctonia solani. The experiment is described as follows: Antifungal activity against Rhizoctonia solani on rice plant at 25 ppm after 24 hr.
The test system of experiment [3] is Pyricularia oryzae. The experiment is described as follows: microbe, parasite or virus in culture. The note with it: 24 h.
Experiment [4] deals with Ustilago maydis. Nature of the experiment: Antifungal activity against Ustilago maydis on rice plant at 25 ppm after 24 hr. The note with it: Mycosarcoma maydis.
For experiment [5], the system named is Agrostis stolonifera var. palustris. Nature of the experiment: Herbicidal activity against Agrostis stolonifera var. palustris at 1 ppm after 9 days relative to control.
Experiment [6] deals with Puccinia recondita. Nature of the experiment: Antifungal activity against Puccinia recondita on wheat plant assessed as disease control at 100 ppm after 24 hr.
Experiment [7] has as its system Parastagonospora nodorum. The experiment is described as follows: Antifungal activity against Phaeosphaeria nodorum on wheat plant at 25 ppm after 24 hr.
Experiment [8] relates to Parastagonospora nodorum. The experiment is described as follows: Antifungal activity against Phaeosphaeria nodorum on wheat plant assessed as disease control at 100 ppm after 24 hr.
The test system of experiment [9] is Lemna minor. Nature of the experiment: Herbicidal activity against Lemna minor (common duckweed) at 1 ppm after 9 days relative to control.
For experiment [10], the system named is Phytophthora infestans. The experiment is described as follows: microbe, parasite or virus in culture. The note with it: in Oryza sativa, 24 h.
For experiment [11], the system named is Zymoseptoria tritici. The experiment is described as follows: Antifungal activity against Zymoseptoria tritici on wheat plant at 25 ppm after 24 hr.

Usually inhibition stands for the drop in the measured response relative to a control, in per cent. A higher inhibition goes with a response far below the control. For `COc1ccc2c(c1OC)C[N+]1(C)CCc3cc4c(cc3C1=C2C)OCO4.[Cl-]` (configuration not stated), the Activity in experiment [1], in experiment [5], in [6], in experiment [8] and in experiment [9] was 0% in each case. In addition, the inhibition at 25 ppm came to 0% in [2]; 0% in experiment [3]; 40% in experiment [4]; 0% in [7]; 0% in experiment [10]; 0% in [11].

Consider `COc1ccc2c(c1OC)CN1CCc3cc4c(cc3[C@@H]1[C@@H]2C)OCO4.Cl`, for which the Activity in [1], in [5], in experiment [6], in experiment [8] and in [9] was 0% in each case. In addition, the inhibition at 25 ppm in experiment [2], in experiment [3], in experiment [4], in experiment [7], in experiment [10] and in experiment [11] was 0% each time.

As to `COc1ccc2c(c1OC)CN1CCc3cc4c(cc3[C@@H]1[C@H]2O)OCO4.Cl`, the Activity in experiment [1], in [5], in [6], in experiment [8] and in [9] was 0% each time. Also, the inhibition at 25 ppm in experiment [2], in [3], in experiment [4], in experiment [7], in [10] and in experiment [11] was 0% throughout.

On to `COc1ccc2c(c1OC)C[N@@+]1(C)CCc3cc4c(cc3[C@@H]1[C@@H]2C)OCO4.[Cl-]`, for which the Activity in experiment [1], in experiment [5], in experiment [6], in experiment [8] and in experiment [9] was 0% throughout. The inhibition at 25 ppm in experiment [2], in [3], in [4], in experiment [7], in experiment [10] and in [11] was 0% each time.

Regarding `COc1ccc2c(c1OC)C[N@+]1(C)CCc3cc4c(cc3[C@@H]1[C@H]2O)OCO4.[Cl-]`, the Activity in experiment [1], in experiment [5], in [6], in experiment [8] and in experiment [9] was 0% in each case. In addition, the inhibition at 25 ppm in experiment [2], in experiment [3], in experiment [4], in [7], in experiment [10] and in experiment [11] was 0% in each case.

Turning to `COc1ccc2c(c1OC)C[N@@+]1(C)CCc3cc4c(cc3[C@@H]1[C@H]2O)OCO4.[Cl-]`, the Activity in [1], in experiment [5], in [6], in [8] and in [9] was 0% throughout. Besides, the inhibition at 25 ppm in experiment [2], in experiment [3], in [4], in [7], in [10] and in experiment [11] was 0% each time.

Regarding `CCCCc1c2[n+](cc3c(OC)c(OC)ccc13)CCc1cc(OC)c(OC)cc1-2.[Cl-]`, the Activity in [1] stood at 0%; in experiment [5], 0%; in experiment [6], 0%; in experiment [8], 73%; in experiment [9] it was 65%. Further, the inhibition at 25 ppm stood at 0% in experiment [2]; 0% in experiment [3]; 0% in experiment [4]; 0% in [7]; 0% in [10]; 90% in experiment [11].
